The values that follow come from ChEMBL document CHEMBL1201862, “PubChem BioAssay data set” (2004).

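Step 1: Grow cells in 96-well plates. Step 2: Expose to compound for 48 hours at 5 concentrations. Step 3: Interpolate endpoints linearly; if unreached, use highest concentration. The concentration for 50% growth inhibition is given as GI50.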 Calls of active or inactive are those of the source. No stated cut-off is given here; in the data, active = GI50 up to about 1.1 µM and inactive = higher.

Test in all cases: inhibition of tumour cell growth, NCI panel, 48 h
Assay [1] relates to SR.
Assay [2] relates to SW-620.
In assay [3] the test system is MDA-MB-231.
The subject of assay [4] is UACC-62.
Assay [5] relates to SF-539.
In assay [6] the test system is SN12C.
The test system of assay [7] is HOP-92.
In assay [8] the test system is Malme-3M.
The subject of assay [9] is CCRF-CEM.
The subject of assay [10] is EKVX.
Assay [11] relates to HCT-116.
Assay [12] relates to OVCAR-5.
For assay [13], the system named is OVCAR-3.
Assay [14] has as its system HOP-62.
In assay [15] the test system is Hs-578T.
Assay [16] deals with U-251.
The subject of assay [17] is TK-10.
The subject of assay [18] is MDA-MB-435.
The test system of assay [19] is A549.
Assay [20] relates to IGROV-1.

With `C/C(=N\Nc1nc2ccccc2o1)c1cccc[n+]1[O-]`, the GI50 in assay [1] is 6.19 µM (inactive); in assay [2], 5.12 µM (inactive); in assay [3], 60.3 µM (inactive); in assay [4] it was 46.1 µM (inactive); in assay [5], 23.4 µM (inactive); in assay [6], 18.6 µM (inactive). In addition, the GI50 is 2.53 µM (inactive) in assay [7]; 2.27 µM (inactive) in assay [8]; 4.3 µM (inactive) in [9]; 11 µM (inactive) in assay [10]; 4.84 µM (inactive) in assay [11]; 11.4 µM (inactive) in [12]. For the same compound, the GI50 in assay [13] was 2.69 µM (inactive); in [14], 10.5 µM (inactive); in assay [15], > 100 µM (inactive); in assay [16], 8.26 µM (inactive); in assay [17], 3.52 µM (inactive); in assay [18] it was 44 µM (inactive). Further, the GI50 in assay [19] was 24.5 µM (inactive); in assay [20], 16.1 µM (inactive).

In the case of `CCCCCCCCCCCCCC(=O)OCC(CCS(=O)(=O)O[C@H]1CC[C@@]2(C)C(=CC[C@@H]3C2CC[C@]2(C)C(=O)CCC32)C1)OC(=O)CCCCCCCCCCCCC` (stereo partly specified), the GI50 in assay [1], in assay [2], in assay [3], in assay [4], in assay [5] and in assay [6] was > 100 µM (inactive) each time. The GI50 in [7], in assay [8], in [9], in [10], in assay [11] and in [12] was > 100 µM (inactive) each time. For the same compound, the GI50 in assay [13], in assay [14], in [15], in assay [16], in assay [17] and in [18] was > 100 µM (inactive) throughout. In addition, the GI50 in assay [19] and in [20] was > 100 µM (inactive) each time.

As for `CSCCC(NC(=O)OC(C)(C)C)C(=O)NCCNc1ccc(NCCNC(=O)C(CCSC)NC(=O)OC(C)(C)C)c2c1C(=O)c1ccccc1C2=O` (stereo unspecified), the GI50 in assay [1] is 2.83 µM (inactive); in [2], 2.23 µM (inactive); in assay [3], 2.83 µM (inactive); in assay [4], 3.8 µM (inactive); in assay [5], 2.71 µM (inactive); in assay [6], 7.71 µM (inactive). Further, the GI50 in assay [7] is 3.93 µM (inactive); in [8], 2.33 µM (inactive); in assay [9], 3.56 µM (inactive); in assay [10] it was 8.11 µM (inactive); in assay [11], 8.71 µM (inactive); in [12], 5.74 µM (inactive). In addition, the GI50 in assay [13] was 7.16 µM (inactive); in assay [14] it was 3.15 µM (inactive); in assay [15] it was 2.39 µM (inactive); in assay [16], 2.88 µM (inactive); in [17] it was 3.38 µM (inactive); in assay [18] it was 2.63 µM (inactive). Further, the GI50 in [19] is 2.84 µM (inactive); in assay [20], 3.14 µM (inactive).

With `CC(C)(C)OC(=O)NC1CC=CCC1NC(=O)OC(C)(C)C` (stereo unspecified), the GI50 in assay [1], in [2], in assay [3], in assay [4], in [5] and in assay [6] was > 100 µM (inactive) each time. Further, the GI50 in assay [7], in assay [8], in assay [9], in assay [11], in [12] and in assay [13] was > 100 µM (inactive) each time. In addition, the GI50 in assay [14], in assay [15], in assay [16], in assay [17], in assay [18] and in [19] was > 100 µM (inactive) each time. The GI50 in assay [20] was > 100 µM (inactive).

`Cc1ccc(C(=O)/C=C2\Nc3ccccc3NC2=O)cc1`: the GI50 in [1] is 15.5 µM (inactive); in assay [3], 2.78 µM (inactive); in assay [4], 2.26 µM (inactive); in assay [5], 4.78 µM (inactive); in [6], 5.58 µM (inactive); in [7], 3.28 µM (inactive). For the same compound, the GI50 in assay [8] is 2.48 µM (inactive); in [9] it was 99.1 µM (inactive); in assay [10], 2.96 µM (inactive); in [11] it was 2.17 µM (inactive); in assay [12] it was 29.4 µM (inactive); in assay [13], 2.99 µM (inactive). In addition, the GI50 is 2.04 µM (inactive) in [14]; 2.21 µM (inactive) in assay [15]; 8.13 µM (inactive) in assay [16]; 2.1 µM (inactive) in assay [17]; 10.9 µM (inactive) in assay [18]; 4.94 µM (inactive) in assay [19]. Further, in assay [20], the GI50 is 1.07 µM (active).

As to `CCc1n[nH]c(=O)n1-c1ccncc1`, the GI50 in assay [1], in assay [2], in assay [3], in assay [5], in [6] and in [7] was > 100 µM (inactive) each time. The GI50 in assay [8], in assay [9], in [10], in assay [11], in [12] and in assay [13] was > 100 µM (inactive) in each case. Also, the GI50 in assay [14], in assay [15], in assay [16], in assay [17], in [18] and in assay [19] was > 100 µM (inactive) throughout. For the same compound, the GI50 in assay [20] is > 100 µM (inactive).

In the case of `S=C1N(/N=C/c2c3ccccc3cc3ccccc23)C(=N\c2ccccc2)/C(=N/c2ccccc2)N1c1ccccc1`, the GI50 in [1], in [2], in assay [3], in assay [4], in [5] and in assay [6] was > 100 µM (inactive) in each case. Further, the GI50 in assay [7], in [8], in [10], in assay [11], in [12] and in assay [13] was > 100 µM (inactive) throughout. Also, the GI50 in assay [14], in assay [15], in assay [16], in assay [17], in [18] and in [19] was > 100 µM (inactive) in each case. In [20], the GI50 was > 100 µM (inactive).
